Measurements: patent US7727736B2, “Soluble phospholipids for use in clotting factor assays” (The University of North Carolina at Chapel Hill, priority 2003, dated 2010)

Assays:
FXa•FVa2 complex = target: T1, FXa•FVa2 complex (Homo sapiens, UniProt P00742+P12259); assay: Native gel electrophoresis (Ferguson analysis), C6PS bound to FXa•FVa2 complex; format: binding
T1 construct: Human prothrombin and factor Xa; tissue Hematologic Technologies Inc. (factor Xa only); factor Xa purchased
Protocol: A mixture of FXa and FVa2 in the absence (lane 1 of gel) and presence (lane 2) of 400 μM C6PS (5 mM Ca^2+) was analyzed by native polyacrylamide gel electrophoresis on a standard 6% gel (Majumder, et al. (2002) supra). A log-log plot of retardation coefficients versus molecular mass of different reference proteins is also shown (open circles). Points have been added to this plot for retardation coefficients obtained for FXa (triangle) or FVa2 (4-point star) in the absence of C6PS, and of the FXa•FVa2 complex (5-point star) formed in the presence of C6PS. The apparent molecular weight of the complex, as identified from this plot, was 224±3.7 kilodaltons.
Native Gel Electrophoresis. This method has been used to document the association of blood coagulation proteins in solution (Majumder, et al. (2002) supra; Majumder, et al. (2003) supra). […] Protein retardation coefficients, which depend to a good approximation only on the hydrodynamic size and shape of the protein, were determined for both the marker and unknown proteins (Ferguson (1964) Metabolism 13:985-1002). A log-log plot of the retardation coefficient against the molecular weights of the marker proteins produced a linear curve from which the molecular weight of the FVa•FXa complex was determined from its measured retardation coefficient (Bryan (1977) Anal. Biochem. 78(2):513-9). […]

APC = APC (Homo sapiens, UniProt P04070); assay: SPS binding to APC; details: other experiments
Source text: Proteolysis at Arg^506 leads to partial inactivation, but proteolysis at Arg^306 is necessary for full inactivation (Kalafatis & Mann (1993) J. Biol. Chemistry 268 27246; Nicolaes et al., (1995) J. Biol. Chemistry (1995) 270 21158). […] The rate of proteolysis of the bond at Arg^306 increased from undetectable to a value of kcat/KM=3-3.5×10^6 M^−1sec^−1, identical to the rate reported with PS-containing membranes.

factor IXa = target: T2, factor IXa (Homo sapiens, UniProt P00740); assay: Binding of C6PS to Factor IXa detected by intrinsic fluorescence; details: 0.20 μM factor IXa, 5 mM calcium, 22° C., single binding site model; read-out: stoichiometric Kd of C6PS binding to factor IXa
T2 construct: intrinsic tryptophan fluorescence of factor IXa
Protocol: Integrated intrinsic fluorescence of 0.20 μM factor IXa in 50 mM Tris, 150 mM NaCl, 5 mM CaCl2, and 0.6% PEG, pH 7.5 was measured as a function of C6PS concentration at 22° C. to follow C6PS binding.

T1 sequence (P00742 41-179 limits assumed): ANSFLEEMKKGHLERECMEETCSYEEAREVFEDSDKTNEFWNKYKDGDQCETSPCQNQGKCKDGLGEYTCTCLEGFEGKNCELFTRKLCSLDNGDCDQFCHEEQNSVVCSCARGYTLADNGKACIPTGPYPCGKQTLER
T1 sequence (P00742 235-488 limits assumed): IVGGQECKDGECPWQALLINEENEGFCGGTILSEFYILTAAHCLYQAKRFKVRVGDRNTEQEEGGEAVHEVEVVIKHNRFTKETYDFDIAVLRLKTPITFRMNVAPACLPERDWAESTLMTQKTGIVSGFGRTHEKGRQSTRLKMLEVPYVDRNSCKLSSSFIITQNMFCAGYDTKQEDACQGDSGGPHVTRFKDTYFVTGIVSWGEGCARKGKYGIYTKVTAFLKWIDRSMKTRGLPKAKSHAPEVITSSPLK
T1 sequence (P12259 29-737 limits assumed): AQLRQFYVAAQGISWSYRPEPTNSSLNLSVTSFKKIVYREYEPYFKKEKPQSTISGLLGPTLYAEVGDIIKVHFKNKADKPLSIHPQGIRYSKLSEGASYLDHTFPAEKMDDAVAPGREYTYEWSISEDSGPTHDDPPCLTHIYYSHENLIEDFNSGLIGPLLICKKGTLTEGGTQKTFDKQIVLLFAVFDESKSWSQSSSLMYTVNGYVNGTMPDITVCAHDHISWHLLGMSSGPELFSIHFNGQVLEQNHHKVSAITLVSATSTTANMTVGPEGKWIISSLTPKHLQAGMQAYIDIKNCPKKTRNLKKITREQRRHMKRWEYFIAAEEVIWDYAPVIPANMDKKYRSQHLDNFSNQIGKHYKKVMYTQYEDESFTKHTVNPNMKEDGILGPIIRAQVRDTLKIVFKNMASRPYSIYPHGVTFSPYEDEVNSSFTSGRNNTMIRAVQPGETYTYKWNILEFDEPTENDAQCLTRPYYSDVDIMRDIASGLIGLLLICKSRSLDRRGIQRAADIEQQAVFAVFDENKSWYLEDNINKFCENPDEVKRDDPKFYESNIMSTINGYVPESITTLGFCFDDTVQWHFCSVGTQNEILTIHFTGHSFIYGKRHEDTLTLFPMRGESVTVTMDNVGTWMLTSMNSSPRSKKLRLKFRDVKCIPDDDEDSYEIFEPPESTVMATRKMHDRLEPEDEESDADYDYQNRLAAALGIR
T1 sequence (P12259 1574-2224 limits assumed): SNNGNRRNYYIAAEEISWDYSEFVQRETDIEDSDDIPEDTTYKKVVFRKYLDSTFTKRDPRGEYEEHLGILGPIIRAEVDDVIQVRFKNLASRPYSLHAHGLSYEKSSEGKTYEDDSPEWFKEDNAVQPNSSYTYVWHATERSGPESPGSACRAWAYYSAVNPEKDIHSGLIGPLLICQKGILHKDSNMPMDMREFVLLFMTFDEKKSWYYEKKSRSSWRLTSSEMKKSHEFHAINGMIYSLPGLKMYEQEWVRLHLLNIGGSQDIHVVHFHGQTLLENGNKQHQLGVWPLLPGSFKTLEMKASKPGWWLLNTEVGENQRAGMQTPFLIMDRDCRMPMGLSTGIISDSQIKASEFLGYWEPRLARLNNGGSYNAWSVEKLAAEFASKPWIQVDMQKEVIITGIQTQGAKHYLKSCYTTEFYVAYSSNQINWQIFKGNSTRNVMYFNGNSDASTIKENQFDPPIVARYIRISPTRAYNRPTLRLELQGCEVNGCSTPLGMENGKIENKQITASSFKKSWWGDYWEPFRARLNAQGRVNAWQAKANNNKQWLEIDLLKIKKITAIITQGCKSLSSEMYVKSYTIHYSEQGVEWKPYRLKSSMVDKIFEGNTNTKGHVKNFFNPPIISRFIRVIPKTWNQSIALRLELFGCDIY
Sequence of APC (P04070 43-197 limits assumed): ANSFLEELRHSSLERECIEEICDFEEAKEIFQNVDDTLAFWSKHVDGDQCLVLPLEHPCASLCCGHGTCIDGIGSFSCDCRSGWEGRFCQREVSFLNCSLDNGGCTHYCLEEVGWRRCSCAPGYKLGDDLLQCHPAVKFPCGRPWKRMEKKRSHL
Sequence of APC (P04070 212-461 limits assumed): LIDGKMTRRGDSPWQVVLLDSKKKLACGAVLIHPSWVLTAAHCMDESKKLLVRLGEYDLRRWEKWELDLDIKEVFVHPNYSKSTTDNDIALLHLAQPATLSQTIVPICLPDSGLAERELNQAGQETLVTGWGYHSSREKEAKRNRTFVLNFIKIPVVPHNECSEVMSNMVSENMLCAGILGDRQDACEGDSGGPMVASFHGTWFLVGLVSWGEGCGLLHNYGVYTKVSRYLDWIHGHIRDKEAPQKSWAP
T2 sequence (P00740 47-191 limits assumed): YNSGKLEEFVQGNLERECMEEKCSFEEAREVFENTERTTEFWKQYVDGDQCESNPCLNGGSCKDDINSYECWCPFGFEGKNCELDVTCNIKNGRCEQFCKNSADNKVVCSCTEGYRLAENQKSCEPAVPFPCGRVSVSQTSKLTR
T2 sequence (P00740 227-461 limits assumed): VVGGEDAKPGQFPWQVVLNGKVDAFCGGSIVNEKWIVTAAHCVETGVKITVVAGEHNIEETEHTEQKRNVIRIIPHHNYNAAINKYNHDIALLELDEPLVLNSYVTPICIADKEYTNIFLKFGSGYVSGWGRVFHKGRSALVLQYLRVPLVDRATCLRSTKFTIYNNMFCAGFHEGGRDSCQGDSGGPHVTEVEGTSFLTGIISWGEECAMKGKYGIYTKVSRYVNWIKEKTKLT

With `CCCCCC(=O)OC[C@H](COP(=O)(O)OC[C@H](N)C(=O)O)OC(=O)CCCCC` [C6PS, 1,2-dicaproyl-sn-glycero-3-phospho-L-serine] the “C6PS in stoichiometry Xa:Va2:C6PS of the complex from molecular mass” value (FXa•FVa2 complex; 400 μM C6PS) was 3.4±7.7, the “most likely number of C6PS molecules bound to the complex” value (FXa•FVa2 complex; based on equilibrium dialysis stoichiometries) was 5-6 molecules and the Kd (APC) was about 1 µM. It also gave a Kd (factor IXa) of about 1.3 µM.
